{"source": "paper PMC3871175", "about": "(Nature Communications, 2012)", "biological_target": "ABCA4 (Bos taurus, UniProt F1MWM0)", "sequence (F1MWM0 whole entry)": "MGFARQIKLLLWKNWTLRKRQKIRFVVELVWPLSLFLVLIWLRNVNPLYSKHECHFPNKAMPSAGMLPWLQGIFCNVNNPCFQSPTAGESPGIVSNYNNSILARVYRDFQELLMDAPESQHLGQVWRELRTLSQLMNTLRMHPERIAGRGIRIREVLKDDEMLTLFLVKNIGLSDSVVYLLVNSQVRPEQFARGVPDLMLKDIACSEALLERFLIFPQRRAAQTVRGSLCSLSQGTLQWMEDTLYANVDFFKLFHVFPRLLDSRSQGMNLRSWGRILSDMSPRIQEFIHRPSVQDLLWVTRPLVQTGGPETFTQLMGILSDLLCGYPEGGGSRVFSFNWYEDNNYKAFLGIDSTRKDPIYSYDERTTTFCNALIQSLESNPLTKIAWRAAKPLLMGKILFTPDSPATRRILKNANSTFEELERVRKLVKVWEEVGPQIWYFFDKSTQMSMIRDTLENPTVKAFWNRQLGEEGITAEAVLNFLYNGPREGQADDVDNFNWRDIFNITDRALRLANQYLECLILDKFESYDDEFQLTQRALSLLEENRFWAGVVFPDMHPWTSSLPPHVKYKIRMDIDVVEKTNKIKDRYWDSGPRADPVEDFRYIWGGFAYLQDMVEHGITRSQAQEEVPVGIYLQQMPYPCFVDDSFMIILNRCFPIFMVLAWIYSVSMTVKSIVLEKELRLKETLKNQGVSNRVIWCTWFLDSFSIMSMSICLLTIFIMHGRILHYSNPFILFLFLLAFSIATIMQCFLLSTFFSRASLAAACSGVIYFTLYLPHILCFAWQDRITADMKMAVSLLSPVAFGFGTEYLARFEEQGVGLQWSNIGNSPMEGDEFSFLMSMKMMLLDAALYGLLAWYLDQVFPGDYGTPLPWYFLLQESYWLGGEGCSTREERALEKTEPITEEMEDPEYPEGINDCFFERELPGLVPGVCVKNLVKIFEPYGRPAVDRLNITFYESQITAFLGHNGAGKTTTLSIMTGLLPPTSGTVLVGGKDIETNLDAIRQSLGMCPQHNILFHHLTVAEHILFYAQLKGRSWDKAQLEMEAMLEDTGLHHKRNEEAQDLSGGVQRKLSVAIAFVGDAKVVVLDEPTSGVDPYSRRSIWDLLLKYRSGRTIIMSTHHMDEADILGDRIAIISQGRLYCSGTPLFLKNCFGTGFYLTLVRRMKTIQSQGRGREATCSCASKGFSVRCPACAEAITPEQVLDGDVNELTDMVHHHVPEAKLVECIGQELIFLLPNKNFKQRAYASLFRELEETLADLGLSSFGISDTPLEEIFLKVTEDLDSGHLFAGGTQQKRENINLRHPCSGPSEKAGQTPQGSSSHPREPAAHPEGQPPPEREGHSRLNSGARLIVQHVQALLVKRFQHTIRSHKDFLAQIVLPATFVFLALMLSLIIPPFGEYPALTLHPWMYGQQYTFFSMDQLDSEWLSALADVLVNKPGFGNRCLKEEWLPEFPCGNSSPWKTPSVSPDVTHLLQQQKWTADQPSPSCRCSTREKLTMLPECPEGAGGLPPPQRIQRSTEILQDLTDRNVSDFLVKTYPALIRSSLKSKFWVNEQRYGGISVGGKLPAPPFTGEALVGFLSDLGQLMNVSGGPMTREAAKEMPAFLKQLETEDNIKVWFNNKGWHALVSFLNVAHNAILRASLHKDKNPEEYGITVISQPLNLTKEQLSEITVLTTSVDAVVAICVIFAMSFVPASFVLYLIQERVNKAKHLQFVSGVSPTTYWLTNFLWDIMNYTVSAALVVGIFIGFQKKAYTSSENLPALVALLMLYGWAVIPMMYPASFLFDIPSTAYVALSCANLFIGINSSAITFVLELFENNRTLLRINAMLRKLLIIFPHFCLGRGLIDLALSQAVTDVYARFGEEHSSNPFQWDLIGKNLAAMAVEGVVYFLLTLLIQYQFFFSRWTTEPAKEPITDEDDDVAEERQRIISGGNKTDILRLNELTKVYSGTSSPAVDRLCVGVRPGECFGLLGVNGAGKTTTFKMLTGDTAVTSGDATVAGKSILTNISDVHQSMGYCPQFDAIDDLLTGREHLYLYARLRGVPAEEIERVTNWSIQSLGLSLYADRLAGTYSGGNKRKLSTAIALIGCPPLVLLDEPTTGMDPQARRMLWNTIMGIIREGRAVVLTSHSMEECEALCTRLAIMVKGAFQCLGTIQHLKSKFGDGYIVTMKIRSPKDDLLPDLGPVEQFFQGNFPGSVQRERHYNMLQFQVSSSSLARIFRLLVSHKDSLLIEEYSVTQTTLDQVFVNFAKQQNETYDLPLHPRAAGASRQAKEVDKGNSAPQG", "type": "biochemical"}
{"substance": "N-retinyl-PE", "values": [{"measurement": "IC50", "value": 9, "unit": "µM"}]}
